{"source": "patent US9808434B2", "about": "“Compound for treating cancer and diabetes” (CITY OF HOPE, priority 2011, dated 2017)", "key": {"GSTP": {"biological_target": "T1, GSTP (Homo sapiens, UniProt P09211)", "T1 construct": "made in house; host or cells: E. coli BL21 (DE3)", "T1 sequence (P09211 whole entry)": "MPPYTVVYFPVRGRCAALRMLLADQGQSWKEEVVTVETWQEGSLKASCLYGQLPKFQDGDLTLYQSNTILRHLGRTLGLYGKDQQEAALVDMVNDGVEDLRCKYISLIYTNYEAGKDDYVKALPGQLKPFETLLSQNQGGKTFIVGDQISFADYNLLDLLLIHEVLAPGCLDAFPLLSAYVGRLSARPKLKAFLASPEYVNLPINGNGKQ", "experiment": "GSTP activity towards CDNB in the presence of GSR4", "type": "biochemical", "conditions": "activity towards CDNB; read-out: estimated Ki (product inhibitor of GSTP)", "procedure": "Furthermore, GSTP activities towards CDNB were assessed in the presence of various concentration of GSR4. The GSTP activities decreased when the concentration of GSR4 increased (Table 3). Thus, […] was a product inhibitor of GSTP with an estimated Ki of less than 5 μM."}, "[1]": {"system": "undifferentiated 3T3-L1 cells", "experiment": "Preadipocyte viability, MTT assay", "type": "cell-based, mouse", "conditions": "3 days, 2.5-25 μM", "procedure": "Undifferentiated 3T3-LI cells were treated with COH-SR2, COH-SR3, COH-SR4, COH-SR7, LR23 or LR59 for 3 days at a concentration of 2.5 μM, 5 μM, 10 μM, 15 μM, 20 μM, or 25 μM. The cell viability for each treatment was determined by MTT assay (FIG. 7)."}, "[2]": {"system": "normal human aortic vascular smooth muscle cells (HAVSMC)", "experiment": "MTT assay, HAVSMC", "type": "cell-based", "procedure": "(§1) Cell density measurements were performed using a hemocytometer to count reproductive cells resistant to staining with trypan blue. Approximately 20,000 cells were plated into each well of 96-well flat-bottomed micro-titer plates. After 12 h or 24 h incubation at 37° C., medium containing either COH-SR4 (ranging 0-200 μM) or elesclomol (ranging 0-20 μM) were added to the cells. After 24 h, 48 h or 96 h incubation, 20 μL of 5 mg/mL MTT were introduced to each well and incubated for 2 h. The plates were centrifuged and medium was decanted. Cells were subsequently dissolved in 100 μl DMSO with gentle shaking for 2 h at room temperature, followed by measurement of OD570 (91)."}, "H358 lung cancer": {"system": "H358 lung cancer", "type": "in vivo", "conditions": "day 60; 4 mg/kg b.w. oral alternate day; control 2.02±0.3 g", "procedure": "For lung cancer studies, twelve 10-weeks-old mice were divided into two groups of 6 animals (treated with corn oil (vehicle), and COH-SR4 compound 4 mg/kg b.w.). All animals were injected with 2×10^6 H358 cells suspensions in 100 μL of PBS, subcutaneously into one flank of each mouse. At the same time, animals were randomized treatment groups as well as control groups. Treatment was started 10 days after the implantation to see palpable tumor growth. Treatment consisted of 0.1 mg of COH-SR4/m ice in 200 μL corn oil by oral gavage alternate day. Control groups were treated with 200 μL corn oil by oral gavage alternate day. Animals were examined daily for signs of tumor growth. Tumors were measured in two dimensions using calipers. Photographs of animals were taken at day 1, day 10, day 14, day 18, day 30, and day 60 after subcutaneous injection.\nHsd: Athymic nude nu/nu mice obtained from Harlan, Indianapolis, Ind. were used for the oral administration of COH-SR4 on lung cancer progression in in-vivo xenograft model. Twelve 10-weeks-old mice were divided into two groups of 6 animals (treated with corn oil (vehicle), and COH-SR4 4 mg/kg b.w.). […] Animals were examined daily for signs of tumor growth and body weights were recorded. […] Tumors were measured in two dimensions using calipers. […] The absorption of orally administered COH-SR4 in mice was assessed."}, "H358": {"system": "H358", "experiment": "Colony formation assay, H358", "type": "cell-based, human", "conditions": "1.5 μM", "procedure": "(§2) Cell survival was evaluated using a standard colony-forming assay. In total, 1×10^5 cells/mL were incubated with COH-SR4 (1.5 μM or 5 μM) or elesclomol (5 μM) for 24 h, and aliquots of 50 or 100 μL were added to 60 mm size petri dishes, containing 4 mL culture medium. After 7 or 10 days, adherent colonies were fixed, stained with 0.5% methylene blue for 30 min and colonies were counted using the Innotech Alpha Imager HP (91).\nThe effect of COH-SR4 was first examined in a NCI panel of cancer cell lines, the results of which indicated good activity of COH-SR4 towards lung cancer (FIG. 78A). […] Values are presented as mean±SD from two separate determinations with eight replicates each (n=16) (FIG. 78B). The COH-SR4 treatment exerted a significant inhibitory effect on the survival of lung cancer cells [IC50: H1417 cells-1.2±0.2 μM, H1618 cells-1.5±0.2 μM, H358 cells-2.1±0.2 μM and H520 cells-2.4±0.3 μM]. […] Following initial screening for the anticancer activity of COH-SR4, the effect of COH-SR4 on clonogenic potential was studied. Standard colony-forming assay was performed and the colonies were counted using Innotech Alpha Imager HP. […] The effect of COH-SR4 on induction of apoptosis was further investigated. […] TUNEL assay was performed using Promega fluorescence detection kit and examined using Zeiss LSM 510 META laser-scanning fluorescence microscope with filters 520 and 620 nm. […]"}, "A2058": {"system": "A2058", "experiment": "MTT assay, A2058", "type": "cell-based", "conditions": "Homo sapiens, A2058, 96 h", "procedure": "as §1"}, "H358 lung cancer tumor": {"system": "H358 lung cancer tumor", "experiment": "Histopathology of H358 tumor sections", "type": "in vivo, mouse", "conditions": "treated vs control", "procedure": "For lung cancer studies, control and COH-SR4 treated H358 lung cancer bearing mice tumor sections were used for histopathologic analyses. Immuno-histochemistry analyses were performed for Ki67, CD31, E-cadherin, and pAMPK expressions. […] Sections were counterstained with Hematoxylin (blue). Photomicrographs at 40× magnification were acquired using Olympus DP 72 microscope and were processed with DP2-BSW software. Percent staining was determined by measuring positive immuno-reactivity per unit area. The intensity of antigen staining was quantified by digital image analysis using Image Pro plus 6.3 software.\nControl and COH-SR4 treated tumor sections obtained from the in-vivo animal studies of Example 31 were used for histopathologic analyses. […] Arrows represent the area for positive staining for an antigen. Bars represent means with 95% confidence intervals (n=5). Asterisks denote statistically significant differences (p<0.001) compared with control by two-sided Student's t test. Statistical significance of difference was determined following image analyses as described in methods section."}, "SK-Mel-2": {"system": "SK-Mel-2", "experiment": "Colony formation assay, SK-Mel-2", "type": "cell-based, human", "conditions": "5 μM", "procedure": "as §2"}}, "data": [{"compound": "O=C(Nc1cc(Cl)cc(Cl)c1)Nc1cc(Cl)cc(Cl)c1", "note": "[COH-SR4, 1,3-bis(3,5-dichlorophenyl) urea]", "values": [{"measurement": "Ki", "setting": "GSTP", "result": "< 5", "unit": "µM"}, {"measurement": "growth of undifferentiated preadipocytes (MTT)", "setting": "[1]", "result": "inhibited growth of undifferentiated 3T3-L1 cells"}, {"measurement": "cytotoxicity in normal cells", "setting": "[2]; 96 h", "result": "did not cause any significant cytotoxicity"}, {"measurement": "cytotoxicity in normal cells", "setting": "[2]; concentrations effective in lung cancer cell lines, 48 h", "result": "did not exert any significant cytotoxicity"}, {"measurement": "tumor weight", "setting": "H358 lung cancer", "result": "0.77 ± 0.2", "unit": "g"}, {"measurement": "colony formation", "setting": "H358", "result": "47±7", "unit": "%"}, {"measurement": "IC50", "setting": "A2058", "result": "11 ± 2", "unit": "µM"}, {"measurement": "Ki67 and CD31 levels", "setting": "H358 lung cancer tumor; ABC staining", "result": "decreased the levels of proliferation marker Ki67, and angiogenesis marker CD31"}, {"measurement": "pAMPK and E-cadherin levels", "setting": "H358 lung cancer tumor", "result": "increased the levels of pAMPK and normal differentiation marker E-cadherin"}, {"measurement": "colony formation", "setting": "SK-Mel-2", "result": "48±6", "unit": "%"}]}]}
